Reference: PubChem BioAssay AID330 (DTP/NCI, 2004)
“And” between values parts separate entries of the source, which are not always exact repeats. Identical values can stand only once. Toxic doses and inconclusive results are not listed. How the source made its calls: active means survival T/C of 150% or more; inactive means T/C below 125% in these data.

Tested on: P388 leukemia ip, CD2F1 mice, survival T/C
Assay: NCI In Vivo Anticancer Drug Screen. Data for tumor model P388 Leukemia (intraperitoneal) in CD2F1 (CDF1) mice
Conditions: endpoint: median survival time, higher = longer survival
How it was run: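 Mice carrying the transplanted tumor received test compound or vehicle. Survival was recorded in each group, and the value is the treated-group measurement divided by that of the vehicle-treated control group.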

[1] = dose: 50.0 mg/kg/injection, schedule: Q01DX009 (ip), vehicle: saline with Tween-80
[2] = dose: 100.0 mg/kg/injection, schedule: Q01DX009 (ip), vehicle: saline with Tween-80
[3] = dose: 200.0 mg/kg/injection, schedule: Q01DX009 (ip), vehicle: saline with Tween-80
[4] = dose: 50.0 mg/kg/injection, schedule: Q01DX005 (ip), vehicle: saline with Tween-80
[5] = dose: 100.0 mg/kg/injection, schedule: Q01DX005 (ip), vehicle: saline with Tween-80
[6] = dose: 50.0 mg/kg/injection, schedule: Q01DX009 (ip), vehicle: Klucel (hydroxypropylcellulose) (HPC)
[7] = dose: 100.0 mg/kg/injection, schedule: Q01DX009 (ip), vehicle: Klucel (hydroxypropylcellulose) (HPC)
[8] = dose: 200.0 mg/kg/injection, schedule: Q01DX009 (ip), vehicle: Klucel (hydroxypropylcellulose) (HPC)
[9] = dose: 50.0 mg/kg/injection, schedule: Q01DX005 (ip), vehicle: Klucel (hydroxypropylcellulose) (HPC)
[10] = dose: 100.0 mg/kg/injection, schedule: Q01DX005 (ip), vehicle: Klucel (hydroxypropylcellulose) (HPC)
[11] = dose: 200.0 mg/kg/injection, schedule: Q01DX005 (ip), vehicle: Klucel (hydroxypropylcellulose) (HPC)

Measured: T/C

COc1cc(NCCCCCCNCC(C)C)c2nccc(C)c2c1
inactive: dose: 6.25 mg/kg/injection, schedule: Q01DX009 (ip), vehicle: saline 95 % of control | dose: 12.5 mg/kg/injection, schedule: Q01DX009 (ip), vehicle: saline 95 % of control | dose: 25.0 mg/kg/injection, schedule: Q01DX009 (ip), vehicle: saline 96 % of control

COc1cc2c(cc1O)C(=O)CCC=C2
inactive: [1] 103 % of control | [2] 101 % of control | [3] 108 % of control

COc1cc(C2NCCc3cc4c(cc32)OCO4)cc(OC)c1OC (configuration not stated)
inactive: [4] 100 % of control | [5] 100 % of control

O=S(=O)(Nc1ccccc1F)c1ccc(F)cc1
inactive: dose: 60.0 mg/kg/injection, schedule: Q01DX005 (ip), vehicle: saline with Tween-80 106 % of control | dose: 120.0 mg/kg/injection, schedule: Q01DX005 (ip), vehicle: saline with Tween-80 100 % of control | dose: 240.0 mg/kg/injection, schedule: Q01DX005 (ip), vehicle: saline with Tween-80 106 % of control

NC(=O)c1c(Cl)nc2sccn12
inactive: dose: 25.0 mg/kg/injection, schedule: Q01DX001 (ip), vehicle: saline with Tween-80 107 % of control | dose: 50.0 mg/kg/injection, schedule: Q01DX001 (ip), vehicle: saline with Tween-80 104 % of control | dose: 100.0 mg/kg/injection, schedule: Q01DX001 (ip), vehicle: saline with Tween-80 101 % of control and 112 % of control

Cc1cc(Cl)ccc1N1C(=O)[N+](C)(C)N=C1[O-]
inactive: dose: 100.0 mg/kg/injection, schedule: Q04DX003 (ip), vehicle: saline 103 % of control | dose: 200.0 mg/kg/injection, schedule: Q04DX003 (ip), vehicle: saline 103 % of control

O=C(CC(=NCCN=C(CC(=O)c1ccccc1)c1ccccc1)c1ccccc1)c1ccccc1.[Cu]
inactive: dose: 100.0 mg/kg/injection, schedule: Q04DX002 (ip), vehicle: saline with Tween-80 98 % of control | dose: 200.0 mg/kg/injection, schedule: Q04DX002 (ip), vehicle: saline with Tween-80 96 % of control | dose: 400.0 mg/kg/injection, schedule: Q04DX002 (ip), vehicle: saline with Tween-80 95 % of control

COc1ccc(C(=O)OC2(C)CC(C)(C)N=N2)cc1 (configuration not stated)
inactive: dose: 12.5 mg/kg/injection, schedule: Q01DX009 (ip), vehicle: other 105 % of control | dose: 25.0 mg/kg/injection, schedule: Q01DX009 (ip), vehicle: other 108 % of control | dose: 50.0 mg/kg/injection, schedule: Q01DX009 (ip), vehicle: other 108 % of control | dose: 100.0 mg/kg/injection, schedule: Q01DX009 (ip), vehicle: other 108 % of control | dose: 200.0 mg/kg/injection, schedule: Q01DX009 (ip), vehicle: other 108 % of control

N#CC(Cc1ccccc1)(c1ccccc1)c1ccccc1
inactive: [6] 101 % of control | [7] 96 % of control | [8] 93 % of control | dose: 400.0 mg/kg/injection, schedule: Q01DX009 (ip), vehicle: Klucel (hydroxypropylcellulose) (HPC) 93 % of control

O=C(Nc1ccccc1)Nc1nncs1
inactive: dose: 1.56 mg/kg/injection, schedule: Q01DX009 (ip), vehicle: distilled water + Tween-80 104 % of control | dose: 3.13 mg/kg/injection, schedule: Q01DX009 (ip), vehicle: distilled water + Tween-80 109 % of control | dose: 6.25 mg/kg/injection, schedule: Q01DX009 (ip), vehicle: distilled water + Tween-80 103 % of control | dose: 12.5 mg/kg/injection, schedule: Q01DX009 (ip), vehicle: distilled water + Tween-80 104 % of control | dose: 25.0 mg/kg/injection, schedule: Q01DX009 (ip), vehicle: distilled water + Tween-80 104 % of control

CCOC(=O)C1C(=O)NN(/C=C2\C=CC=CC2=O)C1c1ccc([N+](=O)[O-])cc1 (configuration not stated)
inactive: dose: 100.0 mg/kg/injection, schedule: Q04DX002 (ip), vehicle: saline 111 % of control | dose: 200.0 mg/kg/injection, schedule: Q04DX002 (ip), vehicle: saline 93 % of control | dose: 400.0 mg/kg/injection, schedule: Q04DX002 (ip), vehicle: saline 98 % of control

CC1(C)CC(NCCO)=CC(=S)N1
inactive: [9] 103 % of control | [10] 101 % of control | [11] 99 % of control

O=[N+]([O-])c1cc2cccc([N+](=O)[O-])c2o1
inactive: [9] 100 % of control | [10] 109 % of control | [11] 102 % of control

S=c1[nH]nc(Cc2cccc3ccccc23)n1-c1ccccc1
inactive: [9] 97 % of control | [10] 99 % of control | [11] 90 % of control

Nc1nc2n(n1)C(=O)C(=O)N2
inactive: dose: 50.0 mg/kg/injection, schedule: Q04DX003 (ip), vehicle: saline with Tween-80 100 % of control | dose: 100.0 mg/kg/injection, schedule: Q04DX003 (ip), vehicle: saline with Tween-80 106 % of control | dose: 200.0 mg/kg/injection, schedule: Q04DX003 (ip), vehicle: saline with Tween-80 103 % of control | dose: 400.0 mg/kg/injection, schedule: Q04DX003 (ip), vehicle: saline with Tween-80 103 % of control

CC(=O)c1c(O)c(C)c(O)c2c1OC1=Cc3c(c(C)nn3-c3ccccc3)C(=O)C12C (configuration not stated)
inactive: dose: 6.25 mg/kg/injection, schedule: Q01DX009 (ip), vehicle: gum acacia 104 % of control and 108 % of control | dose: 12.5 mg/kg/injection, schedule: Q01DX009 (ip), vehicle: gum acacia 103 % of control and 105 % of control | dose: 25.0 mg/kg/injection, schedule: Q01DX009 (ip), vehicle: gum acacia 101 % of control and 105 % of control | dose: 50.0 mg/kg/injection, schedule: Q01DX009 (ip), vehicle: gum acacia 98 % of control and 101 % of control | dose: 100.0 mg/kg/injection, schedule: Q01DX009 (ip), vehicle: gum acacia 99 % of control and 93 % of control | dose: 200.0 mg/kg/injection, schedule: Q01DX009 (ip), vehicle: gum acacia 86 % of control and 90 % of control

Cc1cc(N2CCN(c3cc(C)c4ccccc4n3)CC2)nc2ccccc12
inactive: [1] 100 % of control | [2] 95 % of control | [3] 100 % of control

O=C(O)C1C2C=CC(O2)C1C(=O)Nn1cccc1 (configuration not stated)
inactive: [6] 99 % of control | [7] 94 % of control | [8] 95 % of control

Cc1cc(N=Nc2ccc(-c3ccc(N=Nc4ccc(O)c(C(=O)O)c4)cc3)cc2)c(N)c(N=Nc2ccc(C(=O)Nc3ccc(S(=O)(=O)O)cc3)cc2)c1N
inactive: dose: 6.25 mg/kg/injection, schedule: Q01DX005 (ip), vehicle: saline with Tween-80 100 % of control | dose: 12.5 mg/kg/injection, schedule: Q01DX005 (ip), vehicle: saline with Tween-80 101 % of control | dose: 25.0 mg/kg/injection, schedule: Q01DX005 (ip), vehicle: saline with Tween-80 101 % of control

COC(=O)C[Si](C)(C)C
inactive: [4] 105 % of control | [5] 98 % of control | dose: 200.0 mg/kg/injection, schedule: Q01DX005 (ip), vehicle: saline with Tween-80 95 % of control
